According to patent publication US10259809B2, “Fluorinated imidazo[4,5-C]quinoline derivatives as inhibitors of bromodomain containing proteins” (Trillium Therapeutics Inc., priority 2015, dated 2019):
Where a name gives a salt, the structure may show the parent alone.

Tests used:
[1] = biological target: T1, BRD2-1 (Homo sapiens, UniProt P25440); experiment: BET Bromodomain AlphaScreen assay (Example 9), BRD2-1; format: binding
T1 construct: BRD2-1: Domain 1 of BRD2
Procedure: (§1) The reader assay was a binding assay using the AlphaScreen technology fluorescence energy resonance transfer (FRET) assay. The biotinylated peptide binding to the reader domain of His-tagged protein is monitored by the singlet oxygen transfer from the Streptavidin-coated donor beads to the AlphaScreen Ni-chelate acceptor beads.
(§2) Reaction buffer: 50 mM Hepes, pH7.5, 100 mM NaCl, 0.05% CHAPS, 0.1% BSA, and 1% DMSO (Buffer and DMSO concentration may be different for different reader).
(§3) Biotin-peptide; sequences were different for different targets.
(§4) Reaction Procedure: • 1. Deliver 4× BRD in wells of reaction plate except No BRD control wells. Add buffer instead. • 2. Deliver compounds in 100% DMSO into the BRD mixture by Acoustic technology (Echo550; nanoliter range). Spin down and pre-incubation for 30 min. • 3. Deliver 4× Ligand. Spin and shake. • 4. Incubate for 30 min at room temperature with gentle shaking. • 5. Deliver 4× donor beads. Spin and shake. • 6. Deliver 4× acceptor beads. Spin and shake. Then gentle shaking in the dark for 60 min. • 7.

[2] = biological target: T2, BRD4-FL: Full length BRD4 (Homo sapiens, UniProt O60885); experiment: Bromodomain binding assay (Example 6), BRD4-FL
T2 construct: BRD4-FL: Full length BRD4
Procedure: (§5) The binding of the compounds of the application to bromodomains BRD2, BRD3 and BRD4 was assessed using a time resolved fluorescent resonance energy transfer binding assay (Alpha Screen Technology), that measures the binding of an acetylated histone peptide to the bromodomain protein.
(§6) The bromodomain protein, histone peptide and a variable concentration of test compound were incubated together to reach thermodynamic equilibrium.

[3] = biological target: T3, BRD3-1: Domain 1 of BRD3 (Homo sapiens, UniProt Q15059); experiment: Bromodomain binding assay (Example 6), BRD3-1
T3 construct: BRD3-1: Domain 1 of BRD3
T3 sequence (Q15059 34-140 limits assumed): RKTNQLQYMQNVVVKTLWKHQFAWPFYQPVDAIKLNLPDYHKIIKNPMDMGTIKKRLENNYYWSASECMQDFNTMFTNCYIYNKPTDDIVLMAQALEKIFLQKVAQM
Procedure: as §5, §6

[4] = biological target: T4, BRD2-1: Domain 1 of BRD2 (Homo sapiens, UniProt P25440); experiment: Bromodomain binding assay (Example 6), BRD2-1
T4 construct: BRD2-1: Domain 1 of BRD2
T4 sequence (P25440 74-180 limits assumed): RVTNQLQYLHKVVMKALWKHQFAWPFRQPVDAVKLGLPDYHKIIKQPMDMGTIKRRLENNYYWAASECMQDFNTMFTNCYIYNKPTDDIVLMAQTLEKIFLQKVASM
Procedure: as §5, §6

[5] = biological target: T5, BRD4-FL (Homo sapiens, UniProt O60885); experiment: BET Bromodomain AlphaScreen assay (Example 9), BRD4-FL; format: binding
T5 construct: BRD4-FL: Full length BRD4
Procedure: as §1, §2, §3, §4

[6] = biological target: T6, BRD3-1 (Homo sapiens, UniProt Q15059); experiment: BET Bromodomain AlphaScreen assay (Example 9), BRD3-1; format: binding
T6 construct: BRD3-1: Domain 1 of BRD3
T6 sequence (Q15059 34-140 limits assumed): as the sequence (Q15059 34-140 limits assumed) above
Procedure: as §1, §2, §3, §4

[7] = Liver microsome stability, mouse; format: in vitro ADME, mouse (CD-1; conditions: male, CD-1, mouse, pooled mouse liver microsomes, 1 μM compound, 0.5 mg/ml microsomes, 37° C., read-out: % recovery Mouse Liver Microsomes (MLM) (30 min)
Procedure: (§7) Working stocks were initially diluted to a concentration of 40.0 μM in 0.1 M potassium phosphate buffer before addition to the reaction vials. Pooled mouse (CD-1, male) or human (50 donors) liver microsomes were utilized at a final concentration of 0.5 mg/ml. Duplicate wells were used for each time point (0 and 30 minutes). Reactions were carried out at 37° C. in a shaker, and the final concentration of DMSO was kept constant at 0.01%. The final volume for each reaction was 100 μL, which includes the addition of an NADPH-Regeneration solution (NRS) mix. This NRS mix was comprised of glucose 6-phosphate dehydrogenase (0.4 U/mL), NADP+ (1.3 mM), MgCl2 (3.3 mM), and glucose 6-phosphate (3.3 mM) in assay mixtures. Upon completion of the 30 minute time point, reactions were terminated by the addition of 1.5-volumes (150 μL) of ice-cold, acetonitrile with 0.5% formic acid and internal standard. Samples were then centrifuged at 4,000 rpm for 10 minutes to remove debris and precipitated protein. Approximately 150 μL of supernatant was subsequently transferred to a new 96 well microplate for LC/MS analysis.
(§8) Narrow-window mass extraction LC/MS analysis was performed for all samples using a Waters Xevo quadrupole time-of-flight (QTof) mass spectrometer and an ACQUITY UPLC system, to determine relative peak areas of parent compound.

[8] = Liver microsome stability, human; format: in vitro ADME; conditions: pooled human liver microsomes (50 donors), 1 μM compound, 0.5 mg/ml microsomes, 37° C., read-out: % recovery Human Liver Microsomes (HLM) (30 min)
Procedure: as §7, §8

T1 sequence (P25440 74-180 limits assumed): as the sequence (P25440 74-180 limits assumed) above

EC50 [1] [nM]	IC50 [2] [nM]	IC50 [3] [nM]	IC50 [4] [nM]	EC50 [5] [nM]	EC50 [6] [nM]	recovery at 30 min, 1 μM [7] [%]	recovery at 30 min, 1 μM [8] [%]	Structure (SMILES)
	32	18	32			0.5	13.7	COc1cc2c(cc1-c1c(C)noc1C)ncc1nc(CN(C)C)n([C@H](C)COC(F)F)c12 [3(b), 1-[1-[(1R)-2-(difluoromethoxy)-1-methyl-ethyl]-7-(3,5-dimethylisoxazol-4-yl)-8-methoxy-imidazo[4,5-c]quinolin-2-yl]-N,N-dimethyl-methanamine]
32.3				31.7	17.6			COc1cc2c(cc1-c1c(C)noc1C)ncc1nc(CN(C)C)n([C@H](C)COC(F)F)c12 [3(b).HCl]
						2.6	0.6	COc1cc2c(cc1-c1c(C)noc1C)ncc1nc(CN3CCC(F)(F)CC3)n([C@H](C)COC(F)F)c12 [3(f), 4-[1-[(1R)-2-(difluoromethoxy)-1-methyl-ethyl]-2-[(4,4-difluoro-1-piperidyl)methyl]-8-methoxy-imidazo[4,5-c]quinolin-7-yl]-3,5-dimethyl-isoxazole]
						0.1	58.5	CNCc1nc2cnc3cc(-c4c(C)noc4C)c(OC)cc3c2n1[C@H](C)COC(F)F [3(g)]
						10.4	7.4	COc1cc2c(cc1-c1c(C)noc1C)ncc1nc(CN3CCC(F)(F)C3)n([C@H](C)COC(F)F)c12 [3(i)]
						8	6.9	COc1cc2c(cc1-c1c(C)noc1C)ncc1nc(CN3CC(F)(F)C3)n([C@H](C)COC(F)F)c12 [3(j)]

More lines, now with the values behind:

Structure (SMILES)	EC50 [1] [nM]	IC50 [2] [nM]	IC50 [3] [nM]	IC50 [4] [nM]	EC50 [5] [nM]	EC50 [6] [nM]	recovery at 30 min, 1 μM [7] [%]	recovery at 30 min, 1 μM [8] [%]
COc1cc2c(cc1-c1c(C)noc1C)ncc1nc(C3CCOCC3)n([C@@H](C)COC(F)F)c12 [2(a), 4-[1-[(1S)-2-(difluoromethoxy)-1-methyl-ethyl]-8-methoxy-2-tetrahydropyran-4-yl-imidazo[4,5-c]quinolin-7-yl]-3,5-dimethyl-isoxazole]	63.4	40	44	63	40.4	43.8		
COc1cc2c(cc1-c1c(C)noc1C)ncc1nc(C3CCC(F)(F)CC3)n([C@H](C)COC(F)F)c12 [2(h), 4-[2-(4,4-difluorocyclohexyl)-1-[(1R)-2-(difluoromethoxy)-1-methyl-ethyl]-8-methoxy-imidazo[4,5-c]quinolin-7-yl]-3,5-dimethyl-isoxazole]	27.3	21	31	47	46.2	6.96	35.2	62.3
COc1cc2c(cc1-c1c(C)noc1C)ncc1nc(C3CCCCC3)n([C@H](C)COC(F)F)c12 [2(j), 4-[2-cyclohexyl-1-[(1R)-2-(difluoromethoxy)-1-methyl-ethyl]-8-methoxy-imidazo[4,5-c]quinolin-7-yl]-3,5-dimethyl-isoxazole]							7	1.5
COc1cc2c(cc1-c1c(C)noc1C)ncc1nc(C3CCCC3)n([C@H](C)COC(F)F)c12 [2(k), 4-[2-cyclopentyl-1-[(1R)-2-(difluoromethoxy)-1-methyl-ethyl]-8-methoxy-imidazo[4,5-c]quinolin-7-yl]-3,5-dimethyl-isoxazole]							0.6	0.1
COc1cc2c(cc1-c1c(C)noc1C)ncc1nc(C3CCOCC3)n(CCOC(F)F)c12 [2(n), 4-[1-[2-(difluoromethoxy)ethyl]-8-methoxy-2-tetrahydropyran-4-yl-imidazo[4,5-c]quinolin-7-yl]-3,5-dimethyl-isoxazole]							74.8	58.1
COc1cc2c(cc1-c1c(C)noc1C)ncc1nc(C3CCOCC3)n([C@H]3CC[C@H](OC(F)F)CC3)c12 [2(r)]	281				406	104		
